Measured values taken from patent US10464911B2, “1,3,4-oxadiazole sulfamide derivative compounds as histone deacetylase 6 inhibitor, and the pharmaceutical composition comprising the same” (Chong Kun Dang Pharmaceutical Corp., priority 2015, dated 2019).

Experiments:
[1] = target: human recombinant HDAC1 (Homo sapiens (Human), UniProt Q13547); assay: HDAC1 enzyme activity inhibition assay (HDAC Fluorimetric Drug Discovery Kit); type: biochemical; conditions: human recombinant HDAC1, Fluor de Lys substrate 10 μM, 60 minutes
human recombinant HDAC1, sequence (Q13547 whole entry): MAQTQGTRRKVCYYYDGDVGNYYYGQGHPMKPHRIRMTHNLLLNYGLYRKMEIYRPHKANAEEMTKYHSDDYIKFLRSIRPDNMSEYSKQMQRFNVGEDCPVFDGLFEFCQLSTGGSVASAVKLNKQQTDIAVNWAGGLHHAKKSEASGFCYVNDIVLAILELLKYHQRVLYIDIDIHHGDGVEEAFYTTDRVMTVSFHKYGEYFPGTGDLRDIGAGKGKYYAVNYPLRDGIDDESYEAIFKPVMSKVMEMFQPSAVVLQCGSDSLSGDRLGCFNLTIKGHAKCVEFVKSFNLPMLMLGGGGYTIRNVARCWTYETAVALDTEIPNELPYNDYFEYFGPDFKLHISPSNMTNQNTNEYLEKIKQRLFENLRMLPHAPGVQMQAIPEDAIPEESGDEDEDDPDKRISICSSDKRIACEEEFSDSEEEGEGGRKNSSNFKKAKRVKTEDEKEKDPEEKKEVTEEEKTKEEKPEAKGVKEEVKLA
Procedure: (§1) In order to examine the HDAC6 selectivity of the compounds of formula I of the present invention by HDAC1 and HDAC6 enzymatic activity inhibition assays, an experiment was performed using a conventional substance as a control.
(§2) HDAC enzyme activity was measured using a HDAC Fluorimetric Drug Discovery Kit (BML-AK511, 516, Enzo Life Science). For the HDAC1 enzyme activity test, human recombinant HDAC1 (BML-SE456) was used as an enzyme source, and Fluor de Lys®-“SIRT1 (BNL-KI177) was used as a substrate. A 5-fold dilution of the compound was seeded into a 96-well plate, and then 0.3 μg of the enzyme and 10 μM of the substrate were added to each well of the plate and allowed to react at 30 for 60 minutes. Then, Fluor de Lys®-Developer II (BML-KI176) was added thereto and allowed to react for 30 minutes, after which the fluorescence value (Ex 360, Em 460) was measured using a multi-plate reader (Flexstation 3, Molecular Device). The HDAC6 enzyme was tested using human recombinant HDAC6 (382180) (Calbiochem) according to the same protocol as the HDAC1 enzyme activity test method. Based on the resulting values, each IC50 value was calculated using GraphPad Prism4.0 program.

[2] = target: human recombinant HDAC6 (Homo sapiens (Human), UniProt Q9UBN7); assay: HDAC6 enzyme activity inhibition assay (HDAC Fluorimetric Drug Discovery Kit); type: biochemical; conditions: for HDAC6 selectivity (fold): HDAC6 versus HDAC1; for IC50: human recombinant HDAC6, same protocol as HDAC1 test
human recombinant HDAC6, sequence (Q9UBN7 whole entry): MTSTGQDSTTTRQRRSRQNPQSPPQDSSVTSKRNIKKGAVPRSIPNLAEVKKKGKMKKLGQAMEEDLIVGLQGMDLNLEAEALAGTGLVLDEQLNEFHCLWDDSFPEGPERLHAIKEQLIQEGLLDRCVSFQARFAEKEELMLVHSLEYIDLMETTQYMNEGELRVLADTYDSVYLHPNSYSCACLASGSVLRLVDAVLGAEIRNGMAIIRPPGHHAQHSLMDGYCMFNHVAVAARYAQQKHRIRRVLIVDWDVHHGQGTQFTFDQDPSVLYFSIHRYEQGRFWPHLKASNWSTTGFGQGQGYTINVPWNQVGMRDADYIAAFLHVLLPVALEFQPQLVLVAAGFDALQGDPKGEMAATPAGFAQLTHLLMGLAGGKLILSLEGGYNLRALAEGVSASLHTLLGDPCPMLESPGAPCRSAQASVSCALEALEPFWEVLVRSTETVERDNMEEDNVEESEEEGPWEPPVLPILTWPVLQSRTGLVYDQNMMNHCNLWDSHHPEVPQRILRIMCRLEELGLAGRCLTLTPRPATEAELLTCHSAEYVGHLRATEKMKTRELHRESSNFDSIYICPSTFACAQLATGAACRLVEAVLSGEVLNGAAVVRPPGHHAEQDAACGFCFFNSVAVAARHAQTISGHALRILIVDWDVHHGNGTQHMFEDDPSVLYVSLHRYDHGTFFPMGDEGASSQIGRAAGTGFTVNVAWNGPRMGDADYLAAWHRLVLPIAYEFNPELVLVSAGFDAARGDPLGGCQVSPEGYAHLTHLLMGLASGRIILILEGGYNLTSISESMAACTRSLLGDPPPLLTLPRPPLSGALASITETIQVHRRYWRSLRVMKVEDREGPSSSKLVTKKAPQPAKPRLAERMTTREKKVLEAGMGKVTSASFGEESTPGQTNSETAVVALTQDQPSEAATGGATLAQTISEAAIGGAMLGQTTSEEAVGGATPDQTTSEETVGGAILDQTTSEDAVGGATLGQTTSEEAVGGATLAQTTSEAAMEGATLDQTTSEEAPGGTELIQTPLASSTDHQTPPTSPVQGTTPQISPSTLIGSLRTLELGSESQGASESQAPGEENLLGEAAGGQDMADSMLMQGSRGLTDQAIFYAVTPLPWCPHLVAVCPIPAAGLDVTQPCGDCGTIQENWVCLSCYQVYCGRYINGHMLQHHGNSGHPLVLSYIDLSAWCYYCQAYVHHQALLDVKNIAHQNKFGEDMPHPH
Procedure: as §1, §2

`Cl.O=S(=O)(N1CCNCC1)N(Cc1ccc(-c2nnc(C(F)(F)F)o2)cc1F)c1ccccc1` [Compound 11293, N-(2-fluoro-4-(5-(trifluoromethyl)-1,3,4-oxadiazol-2-yl)benzyl)-N-phenylpiperazine-1-sulfonamide Hydrochloride] was tested, and the IC50 [1] was 76000 nM, the “HDAC6 selectivity (fold)” value [2] was 1156 fold and the IC50 [2] was 66 nM.
In the case of `Cl.O=S(=O)(N1CCNCC1)N(Cc1ccc(-c2nnc(C(F)(F)F)o2)cc1F)c1cccc(F)c1` [Compound 11309, N-(2-fluoro-4-(5-(trifluoromethyl)-1,3,4-oxadiazol-2-yl)benzyl)-N-(3-fluorophenyl)piperazine-1-sulfonamide Hydrochloride], the IC50 [1] is reported as 41500 nM, the “HDAC6 selectivity (fold)” value [2] is reported as 710 fold and the IC50 [2] is reported as 58 nM.
`O=S1(=O)CCN(S(=O)(=O)N(Cc2ccc(-c3nnc(C(F)F)o3)cn2)c2ccc(F)c(Cl)c2)CC1` [Compound 11498, N-(3-chloro-4-fluorophenyl)-N-((5-(5-(difluoromethyl)-1,3,4-oxadiazol-2-yl)pyridin-2-yl)methyl)thiomorpholine-4-sulfonamide 1,1-dioxide] was tested, and the IC50 [1] was 49200 nM, the “HDAC6 selectivity (fold)” value [2] was 2141 fold and the IC50 [2] was 23 nM.
With `O=S(=O)(N1CCN(C2COC2)CC1)N(Cc1ccc(-c2nnc(C(F)(F)F)o2)cc1F)c1ccccc1` [Compound 11527, N-(2-fluoro-4-(5-(trifluoromethyl)-1,3,4-oxadiazol-2-yl)benzyl)-4-(oxetan-3-yl)-N-phenylpiperazine-1-sulfonamide] the IC50 [1] was 47700 nM, the “HDAC6 selectivity (fold)” value [2] was 627 fold and the IC50 [2] was 76 nM.
With `O=S(=O)(N1CCN(C2COC2)CC1)N(Cc1ccc(-c2nnc(C(F)(F)F)o2)cn1)c1ccccc1` [Compound 11528, 4-(oxetan-3-yl)-N-phenyl-N-((5-(5-(trifluoromethyl)-1,3,4-oxadiazol-2-yl)pyridin-2-yl)methyl)piperazine-1-sulfonamide] the IC50 [1] was 41600 nM, the “HDAC6 selectivity (fold)” value [2] was 527 fold and the IC50 [2] was 79 nM.
`O=S(=O)(N1CCN(C2CCC2)CC1)N(Cc1ccc(-c2nnc(C(F)F)o2)cc1)c1ccccc1` [Compound 11674, 4-cyclobutyl-N-(4-(5-(difluoromethyl)-1,3,4-oxadiazol-2-yl)benzyl)-N-phenylpiperazine-1-sulfonamide] was tested, and the “HDAC6 selectivity (fold)” value [2] was 751 fold and the IC50 [2] was 133 nM.
With `CN(CCN1CCN(C2COC2)CC1)S(=O)(=O)N(Cc1ccc(-c2nnc(C(F)F)o2)cc1)c1ccccc1` [Compound 11704, 2-((4-(((N-methyl-N-(2-(4-(oxetan-3-yl)piperazin-1-yl)ethyl)sulfamoyl)(phenyl)amino)methyl))phenyl)-5-(difluoromethyl)-1,3,4-oxadiazole] the “HDAC6 selectivity (fold)” value [2] was 429 fold and the IC50 [2] was 233 nM.
With `CC(=O)N1CCN(CCN(C)S(=O)(=O)N(Cc2ccc(-c3nnc(C(F)F)o3)cc2)c2ccccc2)CC1` [Compound 11713, 2-((4-(((N-methyl-N-(2-(4-acetylpiperazin-1-yl)ethyl)sulfamoyl)(phenyl)amino)methyl))phenyl)-5-(difluoromethyl)-1,3,4-oxadiazole] the “HDAC6 selectivity (fold)” value [2] was 142 fold and the IC50 [2] was 705 nM.
`CN(CCN1CCN(S(C)(=O)=O)CC1)S(=O)(=O)N(Cc1ccc(-c2nnc(C(F)F)o2)cc1)c1ccccc1` [Compound 11714, 2-((4-(((N-methyl-N-(2-(4-(methylsulfonyl)piperazin-1-yl)ethyl)sulfamoyl)(phenyl)amino)methyl))phenyl)-5-(difluoromethyl)-1,3,4-oxadiazole] was tested, and the “HDAC6 selectivity (fold)” value [2] was 616 fold and the IC50 [2] was 162 nM.
For `Cl.O=S(=O)(N1CCC2(CC1)CNC2)N(Cc1ccc(-c2nnc(C(F)F)o2)cc1)c1ccccc1` [Compound 11787, N-(4-(5-(difluoromethyl)-1,3,4-oxadiazol-2-yl)benzyl)-N-phenyl-2,7-diazaspiro[3.5]nonane-7-sulfonamide Hydrochloride], the “HDAC6 selectivity (fold)” value [2] was 1041 fold and the IC50 [2] was 96 nM.
For `O=S(=O)(N1CCC2(CC1)CN(C1COC1)C2)N(Cc1ccc(-c2nnc(C(F)F)o2)cc1)c1ccccc1` [Compound 11788, N-(4-(5-(difluoromethyl)-1,3,4-oxadiazol-2-yl)benzyl)-2-(oxetan-3-yl)-N-phenyl-2,7-diazaspiro[3.5]nonane-7-sulfonamide], the “HDAC6 selectivity (fold)” value [2] was 561 fold and the IC50 [2] was 178 nM.
With `O=S(=O)(N1CCC2(CC1)CN(C1CCC1)C2)N(Cc1ccc(-c2nnc(C(F)F)o2)cc1)c1ccccc1` [Compound 11789, 2-cyclobutyl-N-(4-(5-(difluoromethyl)-1,3,4-oxadiazol-2-yl)benzyl)-N-phenyl-2,7-diazaspiro[3.5]nonane-7-sulfonamide] the “HDAC6 selectivity (fold)” value [2] was 819 fold and the IC50 [2] was 122 nM.
`Cc1cccc(N(Cc2ccc(-c3nnc(C(F)F)o3)cn2)S(=O)(=O)N2CCN(C)[C@H](C)C2)c1` [Compound 11823, (R)—N-((5-(5-(difluoromethyl)-1,3,4-oxadiazol-2-yl)pyridin-2-yl)methyl)-3,4-dimethyl-N-(m-tolyl)piperazine-1-sulfonamide] was tested, and the “HDAC6 selectivity (fold)” value [2] was 2083 fold and the IC50 [2] was 48 nM.
For `Cc1cccc(N(Cc2ccc(-c3nnc(C(F)F)o3)cn2)S(=O)(=O)N2CCN(C3COC3)[C@H](C)C2)c1` [Compound 11824, (R)—N-((5-(5-(difluoromethyl)-1,3,4-oxadiazol-2-yl)pyridin-2-yl)methyl)-3-methyl-4-(oxetan-3-yl)-N-(m-tolyl)piperazine-1-sulfonamide], the “HDAC6 selectivity (fold)” value [2] was 2000 fold and the IC50 [2] was 50 nM.
`C[C@@H]1CN(S(=O)(=O)N(Cc2ccc(-c3nnc(C(F)F)o3)cn2)c2cccc(Cl)c2)CCN1C` [Compound 11825, (R)—N-(3-chlorophenyl)-N-((5-(5-(difluoromethyl)-1,3,4-oxadiazol-2-yl)pyridin-2-yl)methyl)-3,4-dimethylpiperazine-1-sulfonamide] was tested, and the “HDAC6 selectivity (fold)” value [2] was 2777 fold and the IC50 [2] was 36 nM.
For `C[C@@H]1CN(S(=O)(=O)N(Cc2ccc(-c3nnc(C(F)F)o3)cn2)c2cccc(Cl)c2)CCN1C1COC1` [Compound 11826, (R)—N-(3-chlorophenyl)-N-((5-(5-(difluoromethyl)-1,3,4-oxadiazol-2-yl)pyridin-2-yl)methyl)-3-methyl-4-(oxetan-3-yl)piperazine-1-sulfonamide], the “HDAC6 selectivity (fold)” value [2] was 2439 fold and the IC50 [2] was 41 nM.
With `Cc1cccc(N(Cc2ccc(-c3nnc(C(F)F)o3)cn2)S(=O)(=O)N2CCN(C)[C@@H](C)C2)c1` [Compound 11827, (S)—N-((5-(5-(difluoromethyl)-1,3,4-oxadiazol-2-yl)pyridin-2-yl)methyl)-3,4-dimethyl-N-(m-tolyl)piperazine-1-sulfonamide] the “HDAC6 selectivity (fold)” value [2] was 1923 fold and the IC50 [2] was 52 nM.
For `Cc1cccc(N(Cc2ccc(-c3nnc(C(F)F)o3)cn2)S(=O)(=O)N2CCN(C3COC3)[C@@H](C)C2)c1` [Compound 11828, (S)—N-((5-(5-(difluoromethyl)-1,3,4-oxadiazol-2-yl)pyridin-2-yl)methyl)-3-methyl-4-(oxetan-3-yl)-N-(m-tolyl)piperazine-1-sulfonamide], the “HDAC6 selectivity (fold)” value [2] was 2380 fold and the IC50 [2] was 42 nM.
In the case of `C[C@H]1CN(S(=O)(=O)N(Cc2ccc(-c3nnc(C(F)F)o3)cn2)c2cccc(Cl)c2)CCN1C` [Compound 11829, (S)—N-(3-chlorophenyl)-N-((5-(5-(difluoromethyl)-1,3,4-oxadiazol-2-yl)pyridin-2-yl)methyl)-3,4-dimethylpiperazine-1-sulfonamide], the “HDAC6 selectivity (fold)” value [2] is reported as 3448 fold and the IC50 [2] is reported as 29 nM.
`C[C@H]1CN(S(=O)(=O)N(Cc2ccc(-c3nnc(C(F)F)o3)cn2)c2cccc(Cl)c2)CCN1C1COC1` [Compound 11830, (S)—N-(3-chlorophenyl)-N-((5-(5-(difluoromethyl)-1,3,4-oxadiazol-2-yl)pyridin-2-yl)methyl)-3-methyl-4-(oxetan-3-yl)piperazine-1-sulfonamide] was tested, and the “HDAC6 selectivity (fold)” value [2] was 5882 fold and the IC50 [2] was 17 nM.
With `O=S(=O)(N1CCN(C2CCC2)CC1)N(Cc1ccc(-c2nnc(C(F)F)o2)cn1)c1cccc(Cl)c1` [Compound 11831, N-(3-chlorophenyl)-4-cyclobutyl-N-((5-(5-(difluoromethyl)-1,3,4-oxadiazol-2-yl)pyridin-2-yl)methyl)piperazine-1-sulfonamide] the “HDAC6 selectivity (fold)” value [2] was 2777 fold and the IC50 [2] was 36 nM.
For `O=S(=O)(N1CCN(C2COC2)CC1)N(Cc1ccc(-c2nnc(C(F)F)o2)cn1)c1cccc(Cl)c1` [Compound 11832, N-(3-chlorophenyl)-N-((5-(5-(difluoromethyl)-1,3,4-oxadiazol-2-yl)pyridin-2-yl)methyl)-4-(oxetan-3-yl)piperazine-1-sulfonamide], the “HDAC6 selectivity (fold)” value [2] was 4761 fold and the IC50 [2] was 21 nM.
`Cc1cccc(N(Cc2ccc(-c3nnc(C(F)F)o3)cn2)S(=O)(=O)N2CCN(C3COC3)CC2)c1` [Compound 11833, N-((5-(5-(difluoromethyl)-1,3,4-oxadiazol-2-yl)pyridin-2-yl)methyl)-4-(oxetan-3-yl)-N-(m-tolyl)piperazine-1-sulfonamide] was tested, and the “HDAC6 selectivity (fold)” value [2] was 2040 fold and the IC50 [2] was 49 nM.
